We go through two molecules from article doi:10.1101/2023.07.01.547314v1 (biorxiv, 2023).

SMILES strings stand for the structures. Positions count from the first letter of the chain named.

In assay [1] the target is T1, A2BR (Homo sapiens, UniProt P29275, Y10F).
T1 sequence (P29275 1-332 Y10F): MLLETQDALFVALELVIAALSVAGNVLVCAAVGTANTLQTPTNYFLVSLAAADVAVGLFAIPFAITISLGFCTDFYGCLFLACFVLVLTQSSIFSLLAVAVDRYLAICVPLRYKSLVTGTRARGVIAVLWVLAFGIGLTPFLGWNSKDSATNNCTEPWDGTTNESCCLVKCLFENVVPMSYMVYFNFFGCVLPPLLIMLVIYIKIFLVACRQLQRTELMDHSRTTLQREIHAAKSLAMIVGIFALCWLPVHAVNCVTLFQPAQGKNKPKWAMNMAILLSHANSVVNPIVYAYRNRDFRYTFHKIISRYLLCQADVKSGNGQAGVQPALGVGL
Kind of assay: GloSensor cAMP assay, HEK293. Format: cell-based.

The target of assay [2] is T2, A2BR (Homo sapiens, UniProt P29275).
T2 sequence (P29275 1-332): T1 sequence (P29275 1-332 Y10F) with F10Y
The experiment in a line: GloSensor cAMP assay, HEK293. Format: cell-based. For orientation: cAMP levels reflect the balance of adenylyl cyclase and phosphodiesterase activity.

The target of assay [3] is A2AR (Homo sapiens, UniProt P29274, Y9F). The experiment in a line: cell-based.
The target of assay [4] is A2AR (Homo sapiens, UniProt P29274, Y271N). Kind of assay: cell-based.
Assay [5] has as its target T3, A2BR (Homo sapiens, UniProt P29275, N273Y).
T3 sequence (P29275 1-332 N273Y): T1 sequence (P29275 1-332 Y10F) with F10Y, N273Y
The experiment in a line: GloSensor cAMP assay, HEK293. Format: cell-based.

Assay [6] has as its target A2AR (Homo sapiens, UniProt P29274). Kind of assay: cell-based.

Chain of A2AR (Homo sapiens, UniProt P29274, Y271N) (P29274 whole entry Y271N): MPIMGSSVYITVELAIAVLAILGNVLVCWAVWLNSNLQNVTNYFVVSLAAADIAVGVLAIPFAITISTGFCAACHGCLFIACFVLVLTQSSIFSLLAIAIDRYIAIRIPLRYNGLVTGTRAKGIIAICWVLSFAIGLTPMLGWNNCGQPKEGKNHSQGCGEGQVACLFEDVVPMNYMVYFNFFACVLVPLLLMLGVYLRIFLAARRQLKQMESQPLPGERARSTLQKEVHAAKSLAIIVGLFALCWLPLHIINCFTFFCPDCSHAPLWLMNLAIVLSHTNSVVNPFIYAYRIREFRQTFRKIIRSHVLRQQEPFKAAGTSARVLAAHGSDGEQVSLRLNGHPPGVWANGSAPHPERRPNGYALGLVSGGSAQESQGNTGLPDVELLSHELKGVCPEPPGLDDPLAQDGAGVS
Chain of A2AR (Homo sapiens, UniProt P29274, Y9F) (P29274 whole entry Y9F): as the sequence (P29274 whole entry Y271N) above, with Y9F, N271Y counted along it
Chain of A2AR (Homo sapiens, UniProt P29274) (P29274 whole entry): as the sequence (P29274 whole entry Y271N) above, with N271Y counted along it

On to `Cc1c(C#N)cccc1-c1cc(-c2cn(Cc3cccc(C(C)(C)O)n3)nn2)nc(N)n1` [AB928, 3-[2-amino-6-[1-[[6-(2-hydroxypropan-2-yl)pyridin-2-yl]methyl]triazol-4-yl]pyrimidin-4-yl]-2-methylbenzonitrile], for which the IC50 on A2BR [1] turned out to be 1.29 nM; on A2BR [2] it was 8.18 nM; on A2AR [3], 1.78 nM; against A2AR [4] it was 65.6 nM; on A2BR [5] it was 7.46 nM; at A2AR [6], 3.21 nM.

Take `Cc1c(C#N)cccc1-c1cc(-c2ccn(Cc3cccc(C(C)(C)O)n3)c(=O)c2)nc(N)n1` [2-118, 3-[2-amino-6-[1-[[6-(2-hydroxypropan-2-yl)pyridin-2-yl]methyl]-2-oxo-1,2-dihydropyridin-4-yl]pyrimidin-4-yl]-2-methylbenzonitrile]: the IC50 at A2BR [1] was 441 nM; at A2BR [2], 2630 nM; against A2BR [5] it was 1210 nM.

What is called IC50 is the point on the concentration scale where inhibition reaches its midpoint.
